Laboratory results: patent US9670161B2, “5-fluoro-N-(pyridin-2-yl)pyridin-2-amine derivatives containing a sulfone group” (BAYER PHARMA AKTIENGESELLSCHAFT, priority 2012, dated 2017)

Key:
[1] = tested on: HeLa, human cervical tumour cells; test: Proliferation assay, HeLa (crystal violet); assay type: cell-based; conditions: 96 h, 4 days, read-out: Inhibition of HeLa cell proliferation IC50
Protocol: Cultivated tumour cells (HeLa, human cervical tumour cells, ATCC CCL-2; NCI-H460, human non-small cell lung carcinoma cells, ATCC HTB-177; A2780, human ovarian carcinoma cells, ECACC #93112519; DU 145, hormone-independent human prostate carcinoma cells, ATCC HTB-81; HeLa-MaTu-ADR, multidrug-resistant human cervical carcinoma cells, EPO-GmbH Berlin; Caco-2, human colorectal carcinoma cells, ATCC HTB-37; B16F10, mouse melanoma cells, ATCC CRL-6475) were plated at a density of 5,000 cells/well (DU145, HeLa-MaTu-ADR), 3,000 cells/well (NCI-H460, HeLa), 2,500 cells/well (A2780), 1,500 cells/well (Caco-2), or 1,000 cells/well (B16F10) in a 96-well multititer plate in 200 μL of their respective growth medium supplemented 10% fetal calf serum. After 24 hours, the cells of one plate (zero-point plate) were stained with crystal violet (see below), while the medium of the other plates was replaced by fresh culture medium (200 μl), to which the test substances were added in various concentrations (0 μM, as well as in the range of 0.001-10 μM; the final concentration of the solvent dimethyl sulfoxide was 0.5%). The cells were incubated for 4 days in the presence of test substances. Cell proliferation was determined by staining the cells with crystal violet: the cells were fixed by adding 20 μl/measuring point of an 11% glutaric aldehyde solution for 15 minutes at room temperature. After three washing cycles of the fixed cells with water, the plates were dried at room temperature. The cells were stained by adding 100 μl/measuring point of a 0.1% crystal violet solution (pH 3.0). After three washing cycles of the stained cells with water, the plates were dried at room temperature. The dye was dissolved by adding 100 μl/measuring point of a 10% acetic acid solution. The extinction was determined by photometry at a wavelength of 595 nm. The change of cell number, in percent, was calculated by normalization of the measured values to the extinction values of the zero-point plate (=0%) and the extinction of the untreated (0 μm) cells (=100%). The IC50 values (inhibitory concentration at 50% of maximal effect) were determined by means of a 4 parameter fit.

[2] = tested on: HeLa-MaTu-ADR, multidrug-resistant human cervical carcinoma cells; test: Proliferation assay, HeLa-MaTu-ADR (crystal violet); assay type: cell-based; conditions: 96 h, 4 days, read-out: Inhibition of HeLa-MaTu-ADR cell proliferation IC50
Protocol: (§1) Cultivated tumour cells (HeLa, human cervical tumour cells, ATCC CCL-2; NCI-H460, human non-small cell lung carcinoma cells, ATCC HTB-177; A2780, human ovarian carcinoma cells, ECACC #93112519; DU 145, hormone-independent human prostate carcinoma cells, ATCC HTB-81; HeLa-MaTu-ADR, multidrug-resistant human cervical carcinoma cells, EPO-GmbH Berlin; Caco-2, human colorectal carcinoma cells, ATCC HTB-37; B16F10, mouse melanoma cells, ATCC CRL-6475) were plated at a density of 5,000 cells/well (DU145, HeLa-MaTu-ADR), 3,000 cells/well (NCI-H460, HeLa), 2,500 cells/well (A2780), 1,500 cells/well (Caco-2), or 1,000 cells/well (B16F10) in a 96-well multititer plate in 200 μL of their respective growth medium supplemented 10% fetal calf serum. […] Cell proliferation was determined by staining the cells with crystal violet: the cells were fixed by adding 20 μl/measuring point of an 11% glutaric aldehyde solution for 15 minutes at room temperature. […] The extinction was determined by photometry at a wavelength of 595 nm. The change of cell number, in percent, was calculated by normalization of the measured values to the extinction values of the zero-point plate (=0%) and the extinction of the untreated (0 μm) cells (=100%). […]

[3] = tested on: Caco-2, human colorectal carcinoma cells; test: Proliferation assay, Caco-2 (crystal violet); assay type: cell-based; conditions: 96 h, Caco-2, 4 days, read-out: Inhibition of Caco-2 cell proliferation IC50
Protocol: as §1

[4] = tested on: DU 145, hormone-independent human prostate carcinoma cells; test: Proliferation assay, DU145 (crystal violet); assay type: cell-based; conditions: DU-145, 96 h, DU145, 4 days, read-out: Inhibition of DU145 cell proliferation IC50
Protocol: as §1

[5] = tested on: B16F10, mouse melanoma cells; test: Proliferation assay, B16F10 (crystal violet); assay type: cell-based; conditions: B16-F10, 96 h, B16F10, 4 days, read-out: Inhibition of B16F10 cell proliferation IC50
Protocol: as §1

[6] = tested on: A2780, human ovarian carcinoma cells; test: Proliferation assay, A2780 (crystal violet); assay type: cell-based; conditions: 96 h, A2780, 4 days, read-out: Inhibition of A2780 cell proliferation IC50
Protocol: as §1

[7] = tested on: NCI-H460, human non-small cell lung carcinoma cells; test: Proliferation assay, NCI-H460 (crystal violet); assay type: cell-based; conditions: 96 h, NCI-H460, 4 days, read-out: Inhibition of NCI-H460 cell proliferation IC50
Protocol: as §1

[8] = Caco-2 permeation assay; assay type: in vitro ADME; conditions: human, pH 7.2
Protocol: 4. Caco-2 Permeation Assay:
Caco-2 cells (purchased from DSMZ Braunschweig, Germany) were seeded at a density of 4.5×10^4 cells per well on 24 well insert plates, 0.4 μm pore size, and grown for 15 days in DMEM medium supplemented with 10% fetal bovine serum, 1% GlutaMAX (100×, GIBCO), 100 U/mL penicillin, 100 μg/mL streptomycin (GIBCO) and 1% non essential amino acids (100×). Cells were maintained at 37° C. in a humified 5% CO2 atmosphere. Medium was changed every 2-3 day. Before running the permeation assay, the culture medium was replaced by a FCS-free hepes-carbonate transport buffer (pH 7.2). For assessment of monolayer integrity the transepithelial electrical resistance (TEER) was measured. Test compounds were predissolved in DMSO and added either to the apical or basolateral compartment in final concentration of 2 μM in transport buffer. Before and after 2 h incubation at 37° C. samples were taken from both compartments. Analysis of compound content was done after precipitation with methanol by LC/MS/MS analysis. Permeability (Papp) was calculated in the apical to basolateral (A→B) and basolateral to apical (B→A) directions. The apparent permeability was calculated using following equation: Papp=(Vr/Po)(1/S)(P2/t)
Where Vr is the volume of medium in the receiver chamber, Po is the measured peak area or height of the test drug in the donor chamber at t=o, S the surface area of the monolayer, P2 is the measured peak area of the test drug in the acceptor chamber after 2 h of incubation, and t is the incubation time. The efflux ratio basolateral (B) to apical (A) was calculated by dividing the Papp B-A by the Papp A-B. In addition the compound recovery was calculated. The following reference compounds were used for the classification of the permeability class: Antipyrine, Pyrazosin, Verapamil, Fluvastatin, Cimetidine, Ranitidine, Atenolol, Sulfasalazine.

[9] = Caco-2 monolayer, 2 μM test compound, 2 h

SMILES | IC50 [1] | IC50 [2] | IC50 [3] | IC50 [4] | IC50 [5] | IC50 [6] | IC50 [7] | efflux ratio at 2 h, 2 μM ([8]; Papp B-A / Papp A-B, Caco-2, 2 μM test compound) | Papp A→B at 2 h, 2 μM [8, 9] | Papp B→A at 2 h, 2 μM [8, 9]
COc1cc(F)ccc1-c1cc(Nc2cc(CS(C)(=O)=O)cc(C(F)F)n2)ncc1F [Example 5, N-{6-(Difluoromethyl)-4-[(methylsulfonyl)methyl]pyridin-2-yl}-5-fluoro-4-(4-fluoro-2-methoxyphenyl)pyridin-2-amine] | < 0.03 µM | – | – | – | – | – | – | – | – | –
COc1cc(F)ccc1-c1cc(Nc2cc(CS(C)(=O)=O)ccn2)ncc1F [Example 1, 5-Fluoro-4-(4-fluoro-2-methoxyphenyl)-N-{4-[(methylsulfonyl)methyl]pyridin-2-yl}pyridin-2-amine] | 0.084 µM | 0.037 µM | 0.07 µM | 0.056 µM | 0.1 µM | 0.028 µM | 0.062 µM | 0.49 | 20.7 ×10⁻⁶ cm/s | 10.1 ×10⁻⁶ cm/s
COc1cc(F)ccc1-c1cc(Nc2cc(CS(C)(=O)=O)cc(C)n2)ncc1F [Example 2, 5-Fluoro-4-(4-fluoro-2-methoxyphenyl)-N-{6-methyl-4-[(methylsulfonyl)methyl]pyridin-2-yl}pyridin-2-amine] | 0.037 µM | 0.059 µM | 0.037 µM | 0.084 µM | 0.1 µM | – | 0.094 µM | – | – | –
COc1cc(F)ccc1-c1cc(Nc2cc(CS(C)(=O)=O)cc(F)n2)ncc1F [Example 3, 5-Fluoro-4-(4-fluoro-2-methoxyphenyl)-N-{6-fluoro-4-[(methylsulfonyl)methyl]pyridin-2-yl}pyridin-2-amine] | 0.1 µM | – | – | – | – | – | – | – | – | –
COc1cc(F)ccc1-c1cc(Nc2cc(CS(C)(=O)=O)cc(C(F)(F)F)n2)ncc1F [Example 4, 5-Fluoro-4-(4-fluoro-2-methoxyphenyl)-N-{4-[(methylsulfonyl)methyl]-6-(trifluoromethyl)pyridin-2-yl}pyridin-2-amine] | 0.016 µM | – | – | – | – | – | – | – | – | –
